Experimental data reported in the kinase profiling compilation of Christmann-Franck et al. (2016).

Legend:
Assay in all cases: radiometric filter-binding kinase assay
MAPK12 (human) = MAPK12 (human) (UniProt P53778)
CSK (human) = CSK (human) (UniProt P41240)
[1] = tested on: SGK1 (human), O00141 [S422D]
PLK1 (human) = PLK1 (human) (UniProt P53350)
CDK2 CCNA2 (human) = CDK2 CCNA2 (human) (UniProt P20248+P24941)
TBK1 (human) = TBK1 (human) (UniProt Q9UHD2)
MAPK8 (human) = MAPK8 (human) (UniProt P45983)
INSRR (human) = INSRR (human) (UniProt P14616)
RPS6KA3 KD1 KD2 (human) = RPS6KA3 KD1 KD2 (human) (UniProt P51812)
BRSK2 (human) = BRSK2 (human) (UniProt Q8IWQ3)
MELK (human) = MELK (human) (UniProt Q14680)
FGFR1 (human) = FGFR1 (human) (UniProt P11362)
[2] = tested on: RPS6KB1 (human), P23443 [T412E]
PIM1 (human) = PIM1 (human) (UniProt P11309)
SYK (human) = SYK (human) (UniProt P43405)
FLT1 (human) = FLT1 (human) (UniProt P17948)
PIM3 (human) = PIM3 (human) (UniProt Q86V86)
INSR (human) = INSR (human) (UniProt P06213); settings: compound 0.1 µM
MYLK (human) = MYLK (human) (UniProt Q15746)
CSNK1D (human) = CSNK1D (human) (UniProt P48730)
MAPKAPK3 (human) = MAPKAPK3 (human) (UniProt Q16644)

Chain of PIM1 (human) (P11309 whole entry, looked up): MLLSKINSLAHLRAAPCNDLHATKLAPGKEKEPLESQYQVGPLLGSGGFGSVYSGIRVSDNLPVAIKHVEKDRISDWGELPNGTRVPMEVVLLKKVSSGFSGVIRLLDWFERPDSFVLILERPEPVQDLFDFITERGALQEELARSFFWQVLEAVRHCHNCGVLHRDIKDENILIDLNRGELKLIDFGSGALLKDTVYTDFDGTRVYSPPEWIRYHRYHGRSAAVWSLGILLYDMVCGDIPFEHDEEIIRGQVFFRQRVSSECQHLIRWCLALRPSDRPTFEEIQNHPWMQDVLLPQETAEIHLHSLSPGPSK
Chain of MAPK8 (human) (P45983 whole entry, looked up): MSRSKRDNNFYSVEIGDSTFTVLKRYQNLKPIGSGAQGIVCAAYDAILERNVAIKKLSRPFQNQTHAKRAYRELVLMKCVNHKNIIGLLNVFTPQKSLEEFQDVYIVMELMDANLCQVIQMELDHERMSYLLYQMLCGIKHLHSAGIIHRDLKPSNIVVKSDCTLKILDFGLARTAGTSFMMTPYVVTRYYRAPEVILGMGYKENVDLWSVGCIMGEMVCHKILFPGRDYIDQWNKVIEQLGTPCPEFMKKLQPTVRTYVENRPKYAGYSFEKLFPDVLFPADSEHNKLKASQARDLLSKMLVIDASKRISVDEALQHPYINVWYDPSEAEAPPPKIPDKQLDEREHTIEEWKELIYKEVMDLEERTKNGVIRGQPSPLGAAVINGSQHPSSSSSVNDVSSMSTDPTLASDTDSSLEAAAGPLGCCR
Chain of RPS6KB1 (human), P23443 [T412E] (P23443 whole entry T412E, looked up): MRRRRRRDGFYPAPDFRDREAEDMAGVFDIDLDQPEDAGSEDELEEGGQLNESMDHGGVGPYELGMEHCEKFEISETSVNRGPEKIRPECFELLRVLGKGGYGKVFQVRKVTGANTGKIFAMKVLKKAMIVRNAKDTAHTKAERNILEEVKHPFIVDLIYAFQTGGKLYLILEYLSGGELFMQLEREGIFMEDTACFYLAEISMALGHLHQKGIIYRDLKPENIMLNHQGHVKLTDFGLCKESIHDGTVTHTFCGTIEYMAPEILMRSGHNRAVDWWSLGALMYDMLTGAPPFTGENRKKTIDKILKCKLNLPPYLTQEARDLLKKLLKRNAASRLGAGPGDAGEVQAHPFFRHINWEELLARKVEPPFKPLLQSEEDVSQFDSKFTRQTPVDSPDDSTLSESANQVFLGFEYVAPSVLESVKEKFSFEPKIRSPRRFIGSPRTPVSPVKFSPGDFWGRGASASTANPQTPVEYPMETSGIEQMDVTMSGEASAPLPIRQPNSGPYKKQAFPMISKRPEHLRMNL
Chain of MYLK (human) (Q15746 whole entry, looked up): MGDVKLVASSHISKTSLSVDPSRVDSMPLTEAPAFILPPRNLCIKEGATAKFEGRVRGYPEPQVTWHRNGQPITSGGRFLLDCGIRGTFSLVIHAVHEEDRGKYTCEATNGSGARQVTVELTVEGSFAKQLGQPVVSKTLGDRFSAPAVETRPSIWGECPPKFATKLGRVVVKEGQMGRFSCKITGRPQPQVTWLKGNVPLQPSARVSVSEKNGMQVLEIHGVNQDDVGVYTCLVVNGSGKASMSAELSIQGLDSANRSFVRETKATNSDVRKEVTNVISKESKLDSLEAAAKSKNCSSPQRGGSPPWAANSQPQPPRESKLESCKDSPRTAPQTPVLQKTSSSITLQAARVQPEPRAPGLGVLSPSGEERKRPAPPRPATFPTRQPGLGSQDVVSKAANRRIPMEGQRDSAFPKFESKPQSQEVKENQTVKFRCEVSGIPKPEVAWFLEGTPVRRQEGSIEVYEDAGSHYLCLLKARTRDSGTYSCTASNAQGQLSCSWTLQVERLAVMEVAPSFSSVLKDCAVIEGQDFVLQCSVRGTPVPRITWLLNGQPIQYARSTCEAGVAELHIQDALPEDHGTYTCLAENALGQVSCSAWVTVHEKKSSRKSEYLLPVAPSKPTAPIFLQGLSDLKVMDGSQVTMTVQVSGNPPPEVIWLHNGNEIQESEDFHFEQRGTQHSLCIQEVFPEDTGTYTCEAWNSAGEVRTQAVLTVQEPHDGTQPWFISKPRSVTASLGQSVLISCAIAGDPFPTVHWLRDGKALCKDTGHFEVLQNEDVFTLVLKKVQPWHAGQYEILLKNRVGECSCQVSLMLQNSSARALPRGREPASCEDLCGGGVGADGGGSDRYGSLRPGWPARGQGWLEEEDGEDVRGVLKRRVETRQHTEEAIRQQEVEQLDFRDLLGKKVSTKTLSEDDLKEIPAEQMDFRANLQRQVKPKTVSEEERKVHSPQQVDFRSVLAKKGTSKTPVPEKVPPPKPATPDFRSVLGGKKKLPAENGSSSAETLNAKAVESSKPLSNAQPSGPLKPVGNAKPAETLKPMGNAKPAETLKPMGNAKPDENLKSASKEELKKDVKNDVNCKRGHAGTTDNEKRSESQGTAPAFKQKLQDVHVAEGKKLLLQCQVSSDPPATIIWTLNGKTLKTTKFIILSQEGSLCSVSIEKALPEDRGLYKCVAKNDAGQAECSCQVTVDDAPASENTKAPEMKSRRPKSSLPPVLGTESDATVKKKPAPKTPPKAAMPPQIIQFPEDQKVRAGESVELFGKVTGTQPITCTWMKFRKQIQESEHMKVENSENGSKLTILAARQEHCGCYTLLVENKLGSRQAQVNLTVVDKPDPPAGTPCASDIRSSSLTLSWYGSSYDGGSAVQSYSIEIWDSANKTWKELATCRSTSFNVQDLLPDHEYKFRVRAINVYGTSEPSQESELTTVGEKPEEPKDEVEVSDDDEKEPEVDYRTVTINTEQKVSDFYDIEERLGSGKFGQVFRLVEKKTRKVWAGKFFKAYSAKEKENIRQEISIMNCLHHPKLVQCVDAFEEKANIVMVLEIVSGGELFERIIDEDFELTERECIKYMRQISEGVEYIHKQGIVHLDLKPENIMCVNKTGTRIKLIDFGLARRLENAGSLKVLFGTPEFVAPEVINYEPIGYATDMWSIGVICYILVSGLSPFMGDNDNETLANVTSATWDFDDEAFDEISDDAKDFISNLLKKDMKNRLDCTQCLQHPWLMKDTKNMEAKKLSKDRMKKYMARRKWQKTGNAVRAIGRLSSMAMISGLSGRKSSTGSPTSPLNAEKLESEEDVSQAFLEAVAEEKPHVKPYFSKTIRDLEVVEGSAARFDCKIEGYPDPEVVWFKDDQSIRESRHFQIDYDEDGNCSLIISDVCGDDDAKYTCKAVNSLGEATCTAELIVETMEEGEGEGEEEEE
Chain of MELK (human) (Q14680 whole entry, looked up): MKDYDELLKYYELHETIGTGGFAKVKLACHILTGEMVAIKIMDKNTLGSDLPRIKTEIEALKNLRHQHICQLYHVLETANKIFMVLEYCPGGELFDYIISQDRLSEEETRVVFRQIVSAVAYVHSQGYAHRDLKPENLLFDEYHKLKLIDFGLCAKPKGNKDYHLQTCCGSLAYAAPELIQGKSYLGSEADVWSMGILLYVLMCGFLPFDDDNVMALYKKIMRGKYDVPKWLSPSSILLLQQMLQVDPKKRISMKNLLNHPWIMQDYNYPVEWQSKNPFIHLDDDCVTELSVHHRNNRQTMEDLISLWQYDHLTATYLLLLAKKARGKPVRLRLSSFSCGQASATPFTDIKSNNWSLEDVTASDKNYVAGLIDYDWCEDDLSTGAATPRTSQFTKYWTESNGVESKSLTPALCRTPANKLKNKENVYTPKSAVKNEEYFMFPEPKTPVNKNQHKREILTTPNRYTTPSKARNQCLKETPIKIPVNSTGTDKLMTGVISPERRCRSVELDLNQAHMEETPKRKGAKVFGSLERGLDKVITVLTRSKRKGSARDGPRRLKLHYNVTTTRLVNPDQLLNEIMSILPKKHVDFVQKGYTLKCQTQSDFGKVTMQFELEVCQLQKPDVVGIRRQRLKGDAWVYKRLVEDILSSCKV
Chain of PLK1 (human) (P53350 whole entry, looked up): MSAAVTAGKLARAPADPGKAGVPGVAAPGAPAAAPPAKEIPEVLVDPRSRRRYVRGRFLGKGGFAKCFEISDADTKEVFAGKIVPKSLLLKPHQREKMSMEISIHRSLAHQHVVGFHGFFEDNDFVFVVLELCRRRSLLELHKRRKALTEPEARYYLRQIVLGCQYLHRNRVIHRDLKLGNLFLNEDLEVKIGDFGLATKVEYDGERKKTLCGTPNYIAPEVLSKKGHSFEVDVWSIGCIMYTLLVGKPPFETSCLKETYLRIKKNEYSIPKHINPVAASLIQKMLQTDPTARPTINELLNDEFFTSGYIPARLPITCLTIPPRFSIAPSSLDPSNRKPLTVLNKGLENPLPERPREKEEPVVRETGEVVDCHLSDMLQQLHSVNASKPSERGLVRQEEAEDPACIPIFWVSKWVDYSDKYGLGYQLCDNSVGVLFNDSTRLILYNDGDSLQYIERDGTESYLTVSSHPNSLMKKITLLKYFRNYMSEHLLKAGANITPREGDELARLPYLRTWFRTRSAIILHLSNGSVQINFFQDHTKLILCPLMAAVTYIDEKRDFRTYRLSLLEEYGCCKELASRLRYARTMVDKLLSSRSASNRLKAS

## Cn1c(=O)c2c(ncn2C)n(C)c1=O
MAPK12 (human); compound 0.1 µM
  residual activity: 97%
MAPK12 (human); compound 1.0 µM
  residual activity: 110%
CSK (human); compound 0.1 µM
  residual activity: 100%
CSK (human); compound 1.0 µM
  residual activity: 103%
[1]; compound 0.1 µM
  residual activity: 102%
PLK1 (human); compound 0.1 µM
  residual activity: 92%
PLK1 (human); compound 1.0 µM
  residual activity: 95%
CDK2 CCNA2 (human); compound 0.1 µM
  residual activity: 86%
CDK2 CCNA2 (human); compound 1.0 µM
  residual activity: 91%
TBK1 (human); compound 0.1 µM
  residual activity: 92%
TBK1 (human); compound 1.0 µM
  residual activity: 96%
MAPK8 (human); compound 0.1 µM
  residual activity: 92%
MAPK8 (human); compound 1.0 µM
  residual activity: 78%
INSRR (human); compound 0.1 µM
  residual activity: 86%
INSRR (human); compound 1.0 µM
  residual activity: 80%
RPS6KA3 KD1 KD2 (human); compound 0.1 µM
  residual activity: 98%
RPS6KA3 KD1 KD2 (human); compound 1.0 µM
  residual activity: 79%
BRSK2 (human); compound 0.1 µM
  residual activity: 99%
BRSK2 (human); compound 1.0 µM
  residual activity: 97%
MELK (human); compound 0.1 µM
  residual activity: 98%
MELK (human); compound 1.0 µM
  residual activity: 90%
FGFR1 (human); compound 0.1 µM
  residual activity: 118%
FGFR1 (human); compound 1.0 µM
  residual activity: 112%
[2]; compound 0.1 µM
  residual activity: 100%
[2]; compound 1.0 µM
  residual activity: 98%
PIM1 (human); compound 0.1 µM
  residual activity: 90%
PIM1 (human); compound 1.0 µM
  residual activity: 97%
SYK (human); compound 0.1 µM
  residual activity: 92%
SYK (human); compound 1.0 µM
  residual activity: 86%
FLT1 (human); compound 0.1 µM
  residual activity: 80%
FLT1 (human); compound 1.0 µM
  residual activity: 84%
PIM3 (human); compound 0.1 µM
  residual activity: 99%
PIM3 (human); compound 1.0 µM
  residual activity: 97%
INSR (human)
  residual activity: 104%
MYLK (human); compound 0.1 µM
  residual activity: 90%
MYLK (human); compound 1.0 µM
  residual activity: 91%
CSNK1D (human); compound 0.1 µM
  residual activity: 118%
CSNK1D (human); compound 1.0 µM
  residual activity: 120%

## COc1ccc2c(c1)c1c3c(c4c5ccccc5n(C)c4c1n2CC(O)CN(C)C)C(=O)NC3=O (stereo not drawn)
MAPK12 (human); compound 0.1 µM
  residual activity: 99%
MAPK12 (human); compound 1.0 µM
  residual activity: 90%
MAPK12 (human); compound 10.0 µM
  residual activity: 74%
CSK (human); compound 0.1 µM
  residual activity: 84%
CSK (human); compound 1.0 µM
  residual activity: 78%
CSK (human); compound 10.0 µM
  residual activity: 58%
[1]; compound 0.1 µM
  residual activity: 69%
[1]; compound 1.0 µM
  residual activity: 25%
[1]; compound 10.0 µM
  residual activity: 6%
MAPKAPK3 (human); compound 0.1 µM
  residual activity: 131%
MAPKAPK3 (human); compound 1.0 µM
  residual activity: 92%
MAPKAPK3 (human); compound 10.0 µM
  residual activity: 79%
PLK1 (human); compound 0.1 µM
  residual activity: 99%
PLK1 (human); compound 1.0 µM
  residual activity: 98%
PLK1 (human); compound 10.0 µM
  residual activity: 79%
CDK2 CCNA2 (human); compound 0.1 µM
  residual activity: 95%
CDK2 CCNA2 (human); compound 1.0 µM
  residual activity: 90%
CDK2 CCNA2 (human); compound 10.0 µM
  residual activity: 81%
MAPK8 (human); compound 0.1 µM
  residual activity: 103%
MAPK8 (human); compound 1.0 µM
  residual activity: 99%
MAPK8 (human); compound 10.0 µM
  residual activity: 60%
RPS6KA3 KD1 KD2 (human); compound 0.1 µM
  residual activity: 3%
RPS6KA3 KD1 KD2 (human); compound 1.0 µM
  residual activity: 0%
RPS6KA3 KD1 KD2 (human); compound 10.0 µM
  residual activity: 0%
BRSK2 (human); compound 0.1 µM
  residual activity: 72%
BRSK2 (human); compound 1.0 µM
  residual activity: 18%
BRSK2 (human); compound 10.0 µM
  residual activity: 6%
MELK (human); compound 0.1 µM
  residual activity: 72%
MELK (human); compound 1.0 µM
  residual activity: 20%
MELK (human); compound 10.0 µM
  residual activity: 8%
[2]; compound 0.1 µM
  residual activity: 11%
[2]; compound 1.0 µM
  residual activity: 2%
[2]; compound 10.0 µM
  residual activity: 1%
PIM1 (human); compound 0.1 µM
  residual activity: 9%
PIM1 (human); compound 1.0 µM
  residual activity: 1%
PIM1 (human); compound 10.0 µM
  residual activity: 2%
PIM3 (human); compound 0.1 µM
  residual activity: 2%
PIM3 (human); compound 1.0 µM
  residual activity: 1%
PIM3 (human); compound 10.0 µM
  residual activity: 1%
MYLK (human); compound 0.1 µM
  residual activity: 15%
MYLK (human); compound 1.0 µM
  residual activity: 6%
MYLK (human); compound 10.0 µM
  residual activity: 3%
CSNK1D (human); compound 0.1 µM
  residual activity: 103%
CSNK1D (human); compound 1.0 µM
  residual activity: 83%
CSNK1D (human); compound 10.0 µM
  residual activity: 68%

## Cn1nc(Nc2ccc(F)cc2)c2c(N)ncnc21
MAPK12 (human); compound 1.0 µM
  residual activity: 113%
MAPK12 (human); compound 10.0 µM
  residual activity: 112%
CSK (human); compound 1.0 µM
  residual activity: 88%
CSK (human); compound 10.0 µM
  residual activity: 76%
[1]; compound 1.0 µM
  residual activity: 97%
[1]; compound 10.0 µM
  residual activity: 98%
MAPKAPK3 (human); compound 1.0 µM
  residual activity: 137%
MAPKAPK3 (human); compound 10.0 µM
  residual activity: 132%
PLK1 (human); compound 1.0 µM
  residual activity: 92%
PLK1 (human); compound 10.0 µM
  residual activity: 94%
CDK2 CCNA2 (human); compound 1.0 µM
  residual activity: 98%
CDK2 CCNA2 (human); compound 10.0 µM
  residual activity: 96%
MAPK8 (human); compound 1.0 µM
  residual activity: 112%
MAPK8 (human); compound 10.0 µM
  residual activity: 102%
RPS6KA3 KD1 KD2 (human); compound 1.0 µM
  residual activity: 110%
RPS6KA3 KD1 KD2 (human); compound 10.0 µM
  residual activity: 107%
BRSK2 (human); compound 1.0 µM
  residual activity: 99%
BRSK2 (human); compound 10.0 µM
  residual activity: 92%
MELK (human); compound 1.0 µM
  residual activity: 109%
MELK (human); compound 10.0 µM
  residual activity: 91%
[2]; compound 1.0 µM
  residual activity: 114%
[2]; compound 10.0 µM
  residual activity: 114%
PIM1 (human); compound 1.0 µM
  residual activity: 111%
PIM1 (human); compound 10.0 µM
  residual activity: 115%
PIM3 (human); compound 1.0 µM
  residual activity: 101%
PIM3 (human); compound 10.0 µM
  residual activity: 95%
MYLK (human); compound 1.0 µM
  residual activity: 94%
MYLK (human); compound 10.0 µM
  residual activity: 107%
CSNK1D (human); compound 1.0 µM
  residual activity: 97%
CSNK1D (human); compound 10.0 µM
  residual activity: 62%

## Cc1cccc(Nc2nn(C)c3ncnc(N)c23)c1
MAPK12 (human); compound 1.0 µM
  residual activity: 120%
MAPK12 (human); compound 10.0 µM
  residual activity: 132%
CSK (human); compound 1.0 µM
  residual activity: 97%
CSK (human); compound 10.0 µM
  residual activity: 85%
[1]; compound 1.0 µM
  residual activity: 104%
[1]; compound 10.0 µM
  residual activity: 113%
MAPKAPK3 (human); compound 1.0 µM
  residual activity: 91%
MAPKAPK3 (human); compound 10.0 µM
  residual activity: 130%
PLK1 (human); compound 1.0 µM
  residual activity: 96%
PLK1 (human); compound 10.0 µM
  residual activity: 106%
CDK2 CCNA2 (human); compound 1.0 µM
  residual activity: 97%
CDK2 CCNA2 (human); compound 10.0 µM
  residual activity: 91%
MAPK8 (human); compound 1.0 µM
  residual activity: 99%
MAPK8 (human); compound 10.0 µM
  residual activity: 97%
RPS6KA3 KD1 KD2 (human); compound 1.0 µM
  residual activity: 88%
RPS6KA3 KD1 KD2 (human); compound 10.0 µM
  residual activity: 99%
BRSK2 (human); compound 1.0 µM
  residual activity: 102%
BRSK2 (human); compound 10.0 µM
  residual activity: 100%
MELK (human); compound 1.0 µM
  residual activity: 108%
MELK (human); compound 10.0 µM
  residual activity: 118%
[2]; compound 1.0 µM
  residual activity: 127%
[2]; compound 10.0 µM
  residual activity: 137%
PIM1 (human); compound 1.0 µM
  residual activity: 127%
PIM1 (human); compound 10.0 µM
  residual activity: 115%
PIM3 (human); compound 1.0 µM
  residual activity: 120%
PIM3 (human); compound 10.0 µM
  residual activity: 121%
MYLK (human); compound 1.0 µM
  residual activity: 93%
MYLK (human); compound 10.0 µM
  residual activity: 87%
CSNK1D (human); compound 1.0 µM
  residual activity: 77%
CSNK1D (human); compound 10.0 µM
  residual activity: 87%
